From patent US20250000847A1, “TREATMENT OF NEURODEGENERATIVE DISEASES WITH HDAC INHIBITORS” (CASE WESTERN RESERVE UNIVERSITY, priority 2021, published 2025)
Like-named read-outs stand apart in the source and are kept apart here.

Experiments:
HDAC = settings: cell-free assay where stated; read-out: IC50 (pan-HDAC); cited from earlier work
HDACs 2, 3, 6, and 10 = settings: cited from earlier work
HDAC1 = HDAC1 (Homo sapiens, UniProt Q13547); settings: cell-free assays where stated; cited from earlier work
Chain of HDAC1 (Q13547 whole entry, species assumed): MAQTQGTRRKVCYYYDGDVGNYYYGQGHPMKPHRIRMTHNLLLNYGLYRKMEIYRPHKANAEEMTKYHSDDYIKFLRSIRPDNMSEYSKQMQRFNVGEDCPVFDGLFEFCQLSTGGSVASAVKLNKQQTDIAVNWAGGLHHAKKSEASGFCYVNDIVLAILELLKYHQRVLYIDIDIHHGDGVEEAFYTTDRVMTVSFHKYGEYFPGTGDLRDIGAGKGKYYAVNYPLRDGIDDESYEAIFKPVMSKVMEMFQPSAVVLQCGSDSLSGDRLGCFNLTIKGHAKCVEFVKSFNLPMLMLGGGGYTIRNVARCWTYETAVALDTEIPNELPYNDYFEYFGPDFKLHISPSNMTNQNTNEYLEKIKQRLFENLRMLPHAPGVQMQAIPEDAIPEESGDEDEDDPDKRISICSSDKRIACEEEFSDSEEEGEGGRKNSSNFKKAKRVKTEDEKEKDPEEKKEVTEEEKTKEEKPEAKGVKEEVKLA

HDAC2 = HDAC2 (Homo sapiens, UniProt Q92769); settings: cell-free assays where stated; cited from earlier work
Chain of HDAC2 (Q92769 whole entry, species assumed): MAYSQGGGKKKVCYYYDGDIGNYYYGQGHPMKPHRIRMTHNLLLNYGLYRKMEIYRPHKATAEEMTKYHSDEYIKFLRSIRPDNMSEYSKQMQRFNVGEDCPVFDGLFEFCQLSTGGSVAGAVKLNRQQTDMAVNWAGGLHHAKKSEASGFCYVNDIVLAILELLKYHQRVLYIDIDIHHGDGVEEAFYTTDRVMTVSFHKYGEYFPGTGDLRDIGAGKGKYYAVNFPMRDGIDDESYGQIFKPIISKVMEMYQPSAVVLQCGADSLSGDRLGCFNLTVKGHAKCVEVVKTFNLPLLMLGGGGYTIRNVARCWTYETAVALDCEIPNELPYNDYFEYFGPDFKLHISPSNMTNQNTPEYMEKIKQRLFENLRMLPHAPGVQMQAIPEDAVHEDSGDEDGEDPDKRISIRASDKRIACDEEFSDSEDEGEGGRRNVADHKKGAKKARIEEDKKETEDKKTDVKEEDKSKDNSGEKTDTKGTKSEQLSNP

HDAC3 = HDAC3 (Homo sapiens, UniProt O15379); settings: cell-free where stated; cited from earlier work
Chain of HDAC3 (O15379 whole entry, species assumed): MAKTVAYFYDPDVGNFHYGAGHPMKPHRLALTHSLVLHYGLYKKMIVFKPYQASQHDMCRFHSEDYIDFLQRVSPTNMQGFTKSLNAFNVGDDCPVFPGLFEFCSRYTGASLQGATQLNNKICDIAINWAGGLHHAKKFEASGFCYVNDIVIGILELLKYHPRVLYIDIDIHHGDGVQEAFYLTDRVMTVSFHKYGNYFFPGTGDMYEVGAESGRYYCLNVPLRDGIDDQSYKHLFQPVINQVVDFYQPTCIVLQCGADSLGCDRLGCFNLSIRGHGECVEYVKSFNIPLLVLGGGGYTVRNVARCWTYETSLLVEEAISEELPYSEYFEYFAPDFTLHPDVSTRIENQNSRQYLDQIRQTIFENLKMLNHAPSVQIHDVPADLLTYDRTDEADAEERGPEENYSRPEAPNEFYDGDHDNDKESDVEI
Chain of HDAC3 (Q9Y618 395-489 partner limits assumed, species assumed): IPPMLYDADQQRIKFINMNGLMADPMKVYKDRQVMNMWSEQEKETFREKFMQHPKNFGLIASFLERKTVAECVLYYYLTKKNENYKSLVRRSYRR

HDAC6 = HDAC6 (Homo sapiens, UniProt Q9UBN7); settings: cell-free assays; cited from earlier work
Chain of HDAC6 (Q9UBN7 whole entry, species assumed): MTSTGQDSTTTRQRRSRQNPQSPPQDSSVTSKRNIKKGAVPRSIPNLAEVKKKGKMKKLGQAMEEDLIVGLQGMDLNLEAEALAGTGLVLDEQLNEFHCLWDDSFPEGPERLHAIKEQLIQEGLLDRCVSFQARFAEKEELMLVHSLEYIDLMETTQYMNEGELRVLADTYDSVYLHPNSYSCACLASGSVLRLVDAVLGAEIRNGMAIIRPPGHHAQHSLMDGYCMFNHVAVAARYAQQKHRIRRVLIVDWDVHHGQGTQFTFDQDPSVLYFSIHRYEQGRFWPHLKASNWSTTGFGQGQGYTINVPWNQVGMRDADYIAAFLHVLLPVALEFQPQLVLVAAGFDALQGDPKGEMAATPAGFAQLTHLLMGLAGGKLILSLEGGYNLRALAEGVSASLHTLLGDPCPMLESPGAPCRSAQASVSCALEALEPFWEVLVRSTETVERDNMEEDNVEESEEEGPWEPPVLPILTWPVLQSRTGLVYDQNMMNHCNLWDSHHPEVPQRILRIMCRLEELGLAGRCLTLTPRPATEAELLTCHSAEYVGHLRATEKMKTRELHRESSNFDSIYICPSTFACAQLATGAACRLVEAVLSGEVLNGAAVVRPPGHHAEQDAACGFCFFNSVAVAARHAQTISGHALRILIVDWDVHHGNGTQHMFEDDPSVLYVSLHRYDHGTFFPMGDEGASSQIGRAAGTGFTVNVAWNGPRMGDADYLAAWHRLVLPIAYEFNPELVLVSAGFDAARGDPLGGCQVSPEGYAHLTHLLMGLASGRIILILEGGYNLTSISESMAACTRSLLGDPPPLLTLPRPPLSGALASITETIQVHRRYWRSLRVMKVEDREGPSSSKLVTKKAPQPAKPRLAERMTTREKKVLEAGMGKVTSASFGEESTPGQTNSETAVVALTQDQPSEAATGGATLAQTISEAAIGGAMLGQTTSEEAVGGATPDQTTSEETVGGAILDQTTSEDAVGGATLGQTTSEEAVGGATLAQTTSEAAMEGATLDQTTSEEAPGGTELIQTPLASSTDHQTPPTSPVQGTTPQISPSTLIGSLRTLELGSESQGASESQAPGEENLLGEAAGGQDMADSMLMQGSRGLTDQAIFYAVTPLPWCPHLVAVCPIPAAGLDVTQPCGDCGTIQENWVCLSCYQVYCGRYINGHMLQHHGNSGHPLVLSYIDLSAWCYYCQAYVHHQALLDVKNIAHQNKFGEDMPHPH

maize HD2 = settings: cell-free assays; cited from earlier work
maize HD1B = settings: cell-free assays; cited from earlier work
maize HD1A = settings: cell-free assays; cited from earlier work
[1] = biological target: class III isoenzyme SIRT I (Homo sapiens, UniProt Q96EB6); settings: cited from earlier work
Chain of class III isoenzyme SIRT I (Q96EB6 whole entry): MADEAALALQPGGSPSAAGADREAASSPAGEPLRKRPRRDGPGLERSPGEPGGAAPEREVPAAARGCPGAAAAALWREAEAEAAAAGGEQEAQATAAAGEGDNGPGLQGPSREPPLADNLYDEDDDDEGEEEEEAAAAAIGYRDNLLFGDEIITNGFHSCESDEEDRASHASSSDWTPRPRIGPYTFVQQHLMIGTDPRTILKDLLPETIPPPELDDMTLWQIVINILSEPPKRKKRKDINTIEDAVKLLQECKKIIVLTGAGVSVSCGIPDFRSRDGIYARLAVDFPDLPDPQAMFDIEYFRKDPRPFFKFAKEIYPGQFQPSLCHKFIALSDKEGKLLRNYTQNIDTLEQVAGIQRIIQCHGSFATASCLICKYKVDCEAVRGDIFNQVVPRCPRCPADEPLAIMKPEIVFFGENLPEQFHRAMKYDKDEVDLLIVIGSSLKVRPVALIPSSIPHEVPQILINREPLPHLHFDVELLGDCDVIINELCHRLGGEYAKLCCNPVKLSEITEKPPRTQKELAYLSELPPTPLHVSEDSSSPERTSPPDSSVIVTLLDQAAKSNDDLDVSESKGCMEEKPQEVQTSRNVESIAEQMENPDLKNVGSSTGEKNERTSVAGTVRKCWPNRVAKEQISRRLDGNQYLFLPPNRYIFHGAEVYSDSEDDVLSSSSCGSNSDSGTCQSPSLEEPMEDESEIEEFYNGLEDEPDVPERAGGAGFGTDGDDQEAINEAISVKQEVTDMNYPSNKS

HDACs 2, 4, 10, and 11 = settings: cited from earlier work
HDACs 6 and 7 = settings: cited from earlier work
HDAC8 = HDAC8 (Homo sapiens, UniProt Q9BY41); settings: cited from earlier work
Chain of HDAC8 (Q9BY41 whole entry, species assumed): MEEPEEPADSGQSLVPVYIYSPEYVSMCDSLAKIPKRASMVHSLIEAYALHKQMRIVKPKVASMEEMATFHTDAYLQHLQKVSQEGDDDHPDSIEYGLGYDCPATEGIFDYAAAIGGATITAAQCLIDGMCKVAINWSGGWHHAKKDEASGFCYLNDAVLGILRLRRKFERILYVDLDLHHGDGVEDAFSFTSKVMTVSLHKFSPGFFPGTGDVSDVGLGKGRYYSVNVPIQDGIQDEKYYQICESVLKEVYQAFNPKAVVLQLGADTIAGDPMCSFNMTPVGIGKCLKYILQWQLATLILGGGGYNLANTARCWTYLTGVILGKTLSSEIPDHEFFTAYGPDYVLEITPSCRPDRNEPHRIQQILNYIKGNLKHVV

[2] = system: HDAC4/5/7/9/11, Sirtuin1, and Sirtuin2; settings: cited from earlier work
acetylated H4 and H3 = settings: cited from earlier work
[3] = system: MHC Class I (H-2Kb) bound to OVA257-264 on reactive astrocytes; experiment: OVA257-264 peptide antigen cross presentation assay; format: cell-based, mouse; settings: for treated cells H-2 kB-OVA positive DRAs: reactive astrocytes without inhibitor more than about 80%
Description: To test whether HDAC inhibitors block the ability of reactive astrocytes to cross present exogenous antigen, cells were plated down in 96-well plates at a density of about 500 cells/mm^2. Cells were then treated with HDAC inhibitors for 1 hr prior to the addition of reactive astrocyte driving factors as the concentrations stated above. Cells were incubated for 24 hrs, after which, media was washed out and replaced with media containing the peptide fragment ovalbumin 257-264 (OVA257-264). Cells were then incubated overnight, and then stained for 2 hrs at 37° C. with APC-conjugated antibody against MHC Class I (H-2Kb) bound to OVA257-264, then visualized. The percent of H-2Kb positive cells as a percent of total live cells was determined (FIG. 3).
After 24 hours of treatment, these cells were cultured in the presence of the OVA257264 Peptide (GenScript RP10611 or Sigma S7951). After 12 hours, the cells were live-stained for two hours using a conjugated antibody targeted against an OVA257-264 peptide antigen. The cells were then fixed and imaged using the PerkinElmer Operetta CLS High-Content Analysis System.

CCL5 = CCL5 secretion by reactive astrocytes (ELISA); format: cell-based, mouse; settings: FIG. 4
Description: Astrocytes were plated and treated exactly as described for the antigen cross presentation assay. However, after 24 hrs of incubation with either reactive astrocyte driving factors alone or with HDAC inhibitor treatment, conditioned media from the cells was collected and assayed for CCL5 using a commercially available colorimetric ELISA kit (RnD Cat #: DY478-05). Data was then fit to a standard four parameter logistic (4PL) curve and presented as pg/mL/cell, normalized to reactive astrocytes plus DMSO vehicle (FIG. 4).
Media was collected from mouse P2 primary astrocytes that had been cultured for 24 hrs in the presence of cytokines with and without HDAC3 inhibitors and compared to media from astrocytes not treated with cytokines. The concentration of CCL5, a cytokine secreted by reactive astrocytes, was measured in each of the respective media conditions based on the direct adsorption of CCL5 to a pre-coated capture antibody on the ELISA assay plate. The ELISA sandwich assay was performed according to the manufacturer's instructions (DY478-05, R&D Systems). Relative CCL5 concentration were measured based on absorbance measured by a plate reader.

RelA/P65 = experiment: Nuclear RelA/P65 in reactive astrocytes; format: cell-based, mouse
Description: For immunocytochemistry, cells were fixed with ice-cold 4% PFA for 15 minutes at room temperature, washed three times with PBS, blocked and permeabilized with 10% donkey serum and 0.1% Triton X-100 in PBS for 1 hr, and then stained with primary overnight followed by three washes with PBS, and then 1 hr incubation with Alexaflour secondary antibodies and DAPI. Stained cells were imaged using the PerkinElmer Operetta CLS High-Content Analysis System and analyzed using automated scripts in PerkinElmer Columbus Image Analysis software. Primary antibodies used were GBP2 (ProteinTech, 11854-1-AP), vimentin (BioLegend, 919101), RelA/P65 (Cell Signaling Tech, 6956), MBP (Abeam, AB7349).

CC(C)[C@H](C(=O)Nc1ccc(C(=O)NO)cc1)c1ccccc1 [AR-42]
IC50 (HDAC): 30 nM

CN(C)Cc1c(C(=O)NCCOc2ccc(C(=O)NO)cc2)oc2ccccc12 [Abexinostat]
potency to HDACs 2, 3, 6, and 10 (HDACs 2, 3, 6, and 10): modest potent to HDACs 2, 3, 6, and 10 and greater

Nc1ccccc1NC(=O)c1cnccn1 [BG45]
IC50 (HDAC1): 2000 nM
IC50 (HDAC2): 2200 nM
IC50 (HDAC3): 289 nM
IC50 (HDAC6): > 20000 nM

O=C(/C=C/c1ccc(CN(CCO)CCc2c[nH]c3ccccc23)cc1)NO [Dacinostat]
IC50 (HDAC): 32 nM

CCN(CC)Cc1ccc2cc(COC(=O)Nc3ccc(C(=O)NO)cc3)ccc2c1 [Givinostat]
IC50 (maize HD2): 10 nM
IC50 (maize HD1B): 7.5 nM
IC50 (maize HD1A): 16 nM

CN(C)c1ccc(C(=O)NCCCCCCC(=O)NO)cc1 [M344]
IC50 (HDAC): 100 nM

CCCCc1nc2cc(/C=C/C(=O)NO)ccc2n1CCN(CC)CC [Pracinostat]
IC50 (HDAC): 40 to 140 nM
activity against the class III isoenzyme SIRT I [1]: no

Cn1cc(CNCC2CCN(c3ncc(C(=O)NO)cn3)CC2)c2ccccc21 [Quisinostat]
potency to HDACs 2, 4, 10, and 11 (HDACs 2, 4, 10, and 11): modest potent
potency to HDACs 6 and 7 (HDACs 6 and 7): selectivity against HDACs 3, 5, 8, and 9 and lowest

O=C(CCCCCCNC(=O)c1cnc(N(c2ccccc2)c2ccccc2)nc1)NO [Rocilinostat]
activity against HDAC8 (HDAC8): slight activity
activity against HDAC4/5/7/9/11, Sirtuin1, and Sirtuin2 [2]: minimal

O=C(CCCCCN1C(=O)c2cccc3cccc(c23)C1=O)NO [Scriptaid]
effect on acetylated H4 versus H3 (acetylated H4 and H3): greater effect on acetylated H4 than H3.

Nc1ccccc1NC(=O)c1ccc(-c2cn(CCc3ccsc3)nn2)cc1 [T247]
ability of reactive astrocytes to cross present antigen on MHC Class I ([3]; FIG. 3): decrease
treated cells H-2 kB-OVA positive DRAs ([3]; about 2.5 μM): about 8%
treated cells H-2 kB-OVA positive DRAs ([3]; about 5.0 μM): about 20%
secretion of CCL5 by reactive astrocytes (CCL5): significantly decrease
nuclear RelA/P65 (RelA/P65): decreases
nuclear RelA/P65 (RelA/P65; listed as T24710): decreased
IC50 (HDAC3): 55 nM

Trichostatin A
IC50 (HDAC): ~1.8 nM
